These are literature values, as cited in patent publication US20260054267A1, “PRODUCTION OF ENCAPSULATED NANOPARTICLES AT COMMERCIAL SCALE” (ICEUTICA PTY LTD., priority 2009, published 2026).

For the series the following is noted: slowly absorbed by the body.

In general, Tmax refers to the time at which the peak concentration occurs. Turning to `Cc1cnc(NC(=O)C2=C(O)c3ccccc3S(=O)(=O)N2C)s1` [Meloxicam], the time of peak concentration (Tmax) is 4 to 5 h.
